Here are results for three compounds from patent US12098217B2, “Fusion peptides as antimicrobial agents” (CENTRE NATIONAL DE LA RECHERCHE SCIENTIFIQUE, priority 2019, dated 2024).

The target of test [1] is T1, E. coli SC (^EcSC, beta ring, DnaN) (Escherichia coli, UniProt P0A988).
T1 construct: inferred from the pET15b vector and the Ni-NTA/imidazole purification; made in house; host or cells: E. coli BL21 (DE3) pLys
The experiment in a line: ITC, peptide interaction with E. coli sliding clamp. In kind it is binding. Conditions: for interaction with ^EcSC, in words / Kd (nM) / ΔG (kcal/mole) / −TΔS (kcal/mole): ITC 30° C.; for ΔH (kcal/mole): ITC 30° C. (303.15 K); for ΔH (kcal/mole) / Kd (nM) / ΔG (kcal/mole) / −TΔS (kcal/mole): Table 2A, ^EcSC, Ni = no specific interaction. On the procedure:
The DnaN protein was expressed from plasmids pET15b, containing the dnaN gene from E. coli, transfected in BL21 (DE3) pLys E. coli strain. Cells were grown in LB at 37° C. to OD 0.5, then induced by IPTG (0.1 mM) at 28° C. overnight. DnaN protein was first enriched on a Ni-NTA column, eluted with an imidazole step (300 mM) and further purified on a Source Q column in buffer containing 20 mM Tris HCl pH 7.5, 0.5 mM EDTA and 10% glycerol, using a gradient from 0 to 0.5 M NaCl. After a final ultracentrifugation (45K, 1 h, 20° C.), soluble proteins were concentrated on a Centricon 30K (Millipore) in the same buffer and stored at 4° C. in 2 M ammonium sulfate.
ITC experiments were performed on a iTC200 (Microcal Malvern Panalytical) or PEAQ-ITC instrument (Microcal Malvern Panalytical). The E. coli SC were washed extensively with ITC buffer (R1 buffer: 10 mM Hepes pH 7.4, 0.15 M NaCl, 3 mM EDTA) on Centrikon 10K at 4° C. before ITC experiments. […] Similarly, E. coli 70S ribosome particles were also washed extensively with ITC 70S buffer (50 mM Tris HCl pH7.5, 30 mM KCl, 70 mM NH4Cl, 7 mM MgCl2, 1 mM DTT, 5% glycerol) on Centrikon 100K at 4° C. before ITC experiments. […] […] Data were corrected from control experiments in which peptides were injected in ITC buffer solution. Each titration was performed at least twice. Analyses of experimental data were performed with AFFINImeter software (https://www.affinimeter.com; S4S, Santiago de Compostela, Spain).
In general terms: ITC needs no label: the signal is the heat of the interaction.

Test [2] has as its system E. coli 70S ribosome (^Ec70S). The experiment in a line: ITC, peptide interaction with E. coli 70S ribosome. It is filed as binding. Conditions: ITC 30° C., Table 2B, ^Ec70S; for ΔG / ΔH / −TΔS: FITC peptides (*) values not well defined. As for the experimental part:
E. coli MRE600 cells were grown at 37° C. in LB medium until OD^600=1. Cells were centrifuged at 4° C., and pellets were resuspended in buffer A (20 mM Tris HCl pH 7.5; 200 mM NH4Cl; 20 mM MgCl2; 0.1 mM EDTA; 6 mM β-mercaptoethanol) and lysed using a French press at 1.6 kbar. The crude lysate was centrifuged (18 200 rpm) for 30 mn at 4° C. The supernatant was further centrifuged (47000 rpm) at 4° C. for 4 hours and the pellet resuspended in 12.5 ml of buffer A. This solution was laid on a 30% sucrose cushion and centrifuged (34 000 rpm) for 19 hours at 4° C. The ribosome pellet was resuspended in 12.5 ml buffer B (20 mM Tris HCl pH 7.5; 50 mM NH4Cl; 10 mM MgCl2; 0.1 mM EDTA; 6 mM β-mercaptoethanol) and centrifuged again (18 200 rpm) for 1 hour at 4° C. The supernatant was concentrated on Centrikon 100K (Millipore) and washed extensively with ITC 70S buffer. Ribosome concentration was determined by UV absorption at 260 nm. Samples were snap frozen in liquid nitrogen and kept at −80° C.
ITC experiments were performed on a iTC200 (Microcal Malvern Panalytical) or PEAQ-ITC instrument (Microcal Malvern Panalytical). The E. coli SC were washed extensively with ITC buffer (R1 buffer: 10 mM Hepes pH 7.4, 0.15 M NaCl, 3 mM EDTA) on Centrikon 10K at 4° C. before ITC experiments. […] Similarly, E. coli 70S ribosome particles were also washed extensively with ITC 70S buffer (50 mM Tris HCl pH7.5, 30 mM KCl, 70 mM NH4Cl, 7 mM MgCl2, 1 mM DTT, 5% glycerol) on Centrikon 100K at 4° C. before ITC experiments. Peptides (100 to 400 μM) were titrated at 30° C. (303.15 K) in sequential injections (usually 2 μl each) into a SC (20 or 30 μM) or 70S (10 to 15 μM) solution. Data were corrected from control experiments in which peptides were injected in ITC buffer solution. Each titration was performed at least twice. Analyses of experimental data were performed with AFFINImeter software (https://www.affinimeter.com; S4S, Santiago de Compostela, Spain).
The lack of interaction with the ribosome of E. coli has been measured by ITC at 30° C.:
The interactions of these peptides with the E. coli SC (beta ring) and the ribosome were measured by ITC at […]: […]

Another test relates to E. coli D22 strain. The experiment in a line: microbe, parasite or virus in culture. It is filed as cell-based. An excerpt:
E. coli strain D22 (F-, IpxC101, proA23, lac-28, tsx-81, trp-30, his-51, tufA1, rpsL173(strR), ampCp-1 was purchased at E. coli Genetic Stock Center (Yale University) and used in the determination of MIC and in the peptide penetration assays. E. coli ATCC23724 cells were used to infect D. melanogaster flies. 70S ribosomes were purified from the E. coli MRE600 strain (Accession AY140951) and BL21 (DE3) pLys strain was used for production of the DnaN protein.
E. coli strains were cultivated on either agar or liquid 1× Mueller Hinton broth unless specified. MIC assays were performed in duplicate in 96-well microtiter plates on the basis of the protocol recommended by the Clinical and Laboratory Standards Institute. Briefly, a mix of 5-6 fresh (less than 36 hours) colonies grown on MH agar plates were inoculated in 3 ml of MH broth and incubated for about 16 h at 37° C. under agitation. 30 μl of this saturated culture were inoculated in 3 ml of fresh medium and allowed to grow until OD600 nm of about 0.6-0.8. Dilution to an OD600 nm of 0.002 was made in MH broth. Within a time laps not exceeding 30 min, 50 μl of this cell suspension was added to 50 μl of MH broth (containing or not the peptide/antibiotic diluted in MH broth) in wells of a 96-well round bottom microwell plate (Greiner; final cell density about 2 to 5×10^5 cfu/ml). Plates were incubated at 37° C. for 18-24 h and final turbidity of each well was measured at 620 nm using a Multiskan FC microplate reader (Thermo Scientific). MIC was defined as the minimal antibiotic concentration that result in no increase of turbidity at that time. Each MIC determination was performed in duplicate and at least in two independent experiments. Plating of 75 μl of the content of the wells of interest on LB Agar plates was used to determine the MBC that is defined by a decrease of at least 99.9% of cell viability as compared to the number of viable cells in the inoculum (about 2 to 5×10^4 cfu).

In another test the test system is E. coli D22 cells. Conditions: FIG. 1. As for the experimental part:
FIG. 1 concerns the analysis of peptide penetration into E. coli cells. (a) Fluorescence microscopy of E. coli cells exposed to the three different FITC labeled peptides.
In order to analyse the penetration capacity of the peptides in E. coli D22 cells, FITC-labeled peptides were added to 1 ml of bacterial cultures (OD600=0.8) at a final concentration of 8 μg/ml. The cells were allowed to acquire the peptides for 1 h at 37° C., washed 3 times with 0.5 ml PBS, fixed with 1% formaldehyde solution in PBS for 45 min at room temperature, washed 3 times with 0.5 ml PBS and finally resuspended in 50 μl PBS. Cells were visualized using a Leica DM5500 microscope equipped with a 100× objective and images were processed using Fiji software. One-way ANOVA statistical analysis was performed with the R package.

The test system of another test is E. coli. Conditions: cited from earlier work.
The mark [3] stands for this setting: FITC peptides (*), values not well defined, weak interaction.

≈ marks a conversion by molar mass, not a printed value. Read-outs that look alike come from different tables or passages of the source. Peptide text beside a SMILES is read from it. A value given as a limit tells only on which side of the number the result lay.

T1 sequence (P0A988 whole entry): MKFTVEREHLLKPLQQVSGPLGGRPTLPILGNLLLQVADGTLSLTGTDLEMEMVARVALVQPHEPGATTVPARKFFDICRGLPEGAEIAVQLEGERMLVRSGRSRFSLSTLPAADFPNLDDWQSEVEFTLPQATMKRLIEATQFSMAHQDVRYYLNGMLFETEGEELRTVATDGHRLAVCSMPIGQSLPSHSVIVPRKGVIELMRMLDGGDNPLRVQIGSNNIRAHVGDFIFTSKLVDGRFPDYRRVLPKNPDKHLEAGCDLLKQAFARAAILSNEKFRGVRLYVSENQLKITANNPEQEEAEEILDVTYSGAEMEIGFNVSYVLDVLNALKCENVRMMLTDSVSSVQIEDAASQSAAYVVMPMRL

On to `CC[C@H](C)[C@H](NC(=O)[C@@H]1CCCN1C(=O)[C@H](CCCNC(=N)N)NC(=O)[C@@H]1CCCN1C(=O)[C@@H]1CCCN1C(=O)[C@@H](NC(=O)[C@@H]1CCCN1C(=O)[C@H](CCCNC(=N)N)NC(=O)[C@@H]1CCCN1C(=O)[C@H](CC(C)C)NC(=O)[C@H](Cc1ccc(O)cc1)NC(=O)[C@H](CO)NC(=O)CNC(=O)[C@H](CCCCN)NC(=O)[C@H](CC(=O)O)NC(=O)[C@@H](NC(=O)[C@H](CCCCN)NC(=O)c1ccc2c(c1)C(=O)OC21c2ccc(O)cc2Oc2cc(O)ccc21)C(C)C)[C@@H](C)O)C(=O)N[C@@H](Cc1ccc(O)cc1)C(=O)N[C@@H](CC(N)=O)C(=O)N[C@@H](CCCNC(=N)N)C(=O)N[C@@H](CC(N)=O)C(=O)NCC(=O)N1CCC[C@H]1C(=O)N[C@@H](CCCNC(=N)N)C(=O)N[C@@H](CC1CCCCC1)C(=O)N[C@@H](Cc1ccccc1)C(=O)N[C@@H](CCC(N)=O)C(=O)N[C@@H](CC(C)C)C(=O)N[C@@H](CC(=O)O)C(=O)O` [Peptide P72], for which, in test [1], the “interaction with ^EcSC, in words” value is “do not interact”; the “ΔH (kcal/mole)” value is on record as “Ni”; the “Kd (nM)” value was “Ni”; the “ΔG (kcal/mole)” value is recorded as “Ni”. Further, the “−TΔS (kcal/mole)” value in test [1] was “Ni”. Besides, in test [2] (setting [3]), the Kd (as a rule, the equilibrium constant for the complex coming apart) is greater than 10 µM. In addition, in test [2] (Ni = no specific interaction), the “ΔG” value was -5.98 kcal/mol, the “ΔH” value was -8.92 kcal/mol and the “−TΔS” value was found to be 2.94 kcal/mol. In addition, the “MIC (μM)” value in the test on E. coli D22 strain (D22 strain) was greater than 269.9 µM. The “entry into E. coli cells, times less efficiently than P122” value in the test with E. coli D22 cells (FITC staining after exposure to equal amounts) is “about 3 times”.
Consider `CC[C@H](C)[C@H](NC(=O)[C@@H]1CCCN1C(=O)[C@H](CCCNC(=N)N)NC(=O)[C@@H]1CCCN1C(=O)[C@@H]1CCCN1C(=O)[C@@H](NC(=O)[C@@H]1CCCN1C(=O)[C@H](CCCNC(=N)N)NC(=O)[C@@H]1CCCN1C(=O)[C@H](CC(C)C)NC(=O)[C@H](Cc1ccc(O)cc1)NC(=O)[C@H](CO)NC(=O)CNC(=O)[C@H](CCCCN)NC(=O)[C@H](CC(=O)O)NC(=O)[C@@H](N)C(C)C)[C@@H](C)O)C(=O)N[C@@H](Cc1ccc(O)cc1)C(=O)N[C@@H](CC(N)=O)C(=O)N[C@@H](CCCNC(=N)N)C(=O)N[C@@H](CC(N)=O)C(N)=O` [Py, reference compound] (H-VDKGSYLPRPTPPRPIYNRN-NH2), for which, in test [1], the “interaction with ^EcSC, in words” value is given as “do not interact”; the “ΔH (kcal/mole)” value is “Ni”; the “Kd (nM)” value is “Ni”; the “ΔG (kcal/mole)” value was “Ni”. Besides, the “−TΔS (kcal/mole)” value in test [1] was “Ni”. Further, in test [2] (Ni = no specific interaction), binding was put at a Kd of 0.0155 µM, the “ΔG” value is -10.9 kcal/mol, the “ΔH” value is -19.2 kcal/mol and the “−TΔS” value stood at 8.23 kcal/mol. In addition, the “MBC” value in the test with E. coli D22 strain (D22 strain, 36 h) stood at 8 µg/mL (≈ 3.42 µM). In the test on E. coli, the “MIC of previous reports” value is 3.69 to 7.56 µM. Also, the “MIC of previous reports” value in the test on E. coli (other E. coli strains and/or culture media) was 9 to 18 µg/mL.
In the case of `CC[C@H](C)[C@H](NC(=O)[C@@H]1CCCN1C(=O)[C@H](CCCNC(=N)N)NC(=O)[C@@H]1CCCN1C(=O)[C@@H]1CCCN1C(=O)[C@@H](NC(=O)[C@@H]1CCCN1C(=O)[C@H](CCCNC(=N)N)NC(=O)[C@@H]1CCCN1C(=O)[C@H](CC(C)C)NC(=O)[C@H](Cc1ccc(O)cc1)NC(=O)[C@H](CO)NC(=O)CNC(=O)[C@H](CCCCN)NC(=O)[C@H](CC(=O)O)NC(=O)[C@@H](NC(=O)[C@H](CCCCN)NC(=O)c1ccc2c(c1)C(=O)OC21c2ccc(O)cc2Oc2cc(O)ccc21)C(C)C)[C@@H](C)O)C(=O)N[C@@H](Cc1ccc(O)cc1)C(=O)N[C@@H](CC(N)=O)C(=O)N[C@@H](CCCNC(=N)N)C(=O)N[C@@H](CC(N)=O)C(N)=O` [Peptide P122], in test [1], the “interaction with ^EcSC, in words” value is “do not interact”; the “ΔH (kcal/mole)” value is “Ni”; the “Kd (nM)” value was “Ni”; the “ΔG (kcal/mole)” value is “Ni”. In addition, in test [1], the “−TΔS (kcal/mole)” value is “Ni”. The dissociation constant (Kd) in test [2] (setting [3]) was greater than 10 µM. Also, in test [2] (Ni = no specific interaction), the “ΔG” value was -6.91 kcal/mol, the “ΔH” value was -20.1 kcal/mol and the “−TΔS” value amounted to 13.3 kcal/mol. Moreover, in the test with E. coli D22 strain (D22 strain), the “MIC (μM)” value is 181 to 362 µM and the “MIC (μg/ml)” value lay within 512 to 1024 µg/mL. In the test with E. coli D22 strain (E. coli D22), the “fold increase in MIC as compared to Py” value was in the range of 64 to 512 fold. The “penetration into E. coli cells, times more efficiently than P72 or P150” value with E. coli D22 cells (average FITC signal of more than 100 bacteria) is reported as “about 3 times”.
